Tests used:
Format in all cases: in vivo, human
[1] = system: adults with Fragile X Syndrome (FXS); experiment: WJ auditory attention; conditions: FMRP-present male patients
[2] = system: adults with Fragile X Syndrome (FXS); experiment: EEG relative band power
Source text: Brain cells communicate via electrical impulses and are active all the time, even a subject is asleep. Electroencephalogram (EEG) detects the electrical activity in the brain. EEG can measure alpha waves, beta waves, and gamma waves. FXS patients typically show low alpha (Alpha waves are involved in higher level, complex cognition) and elevated gamma (representing noise, excessive synaptic connectivity-brain cells over connecting). Gamma activations represent high frequency brain rhythms, which may coincide with functional brain activity and/or muscular activity.
EEG statistical analysis strategies used in this study include: (a) electrode-specific relative band power estimation; (b) applying crossover-trial modeling to validate the absence of period effect; and (c) testing the within-subject relative power change per condition (i.e., determining impact of AZD7325 on gamma power in a treated patient).

[3] = system: adults with Fragile X Syndrome (FXS); experiment: RBANS list learning in AZD7325 clinical study; set-up: key to RBANS list learning, difference of least squares means, Estimate: Baseline - Low: difference in raw score (number of words remembered); key to RBANS-LL score: raw score = number of words remembered; higher is better; conditions: for RBANS-LL score: undetectable FMRP male subjects (n=5), mean ± SD
Source text: This study aims at investigating the safety, tolerability, and blood pharmacodynamics of treatment with oral administration of AZD7325 in adults with Fragile X Syndrome (FXS). This study also investigates measures of efficacy and biomarkers during treatment.
The treatment conditions are provided Table 2 below:
Table 5 below summarizes clinical measure RBANS List Learning scores from the 5 “undetectable” FMRP male subjects. RBANS List Learning is a verbal working memory task and raw scores provided indicate number of words remembered, with higher scores indicating more number of words remembered. Group average and standard deviation were obtained cross subjects per treatment type (Placebo/Low dose/High dose) and per visit, which are 1) baseline: before intake, 2) acute: after the first dosage, and 3) chronic: post 2-week daily dosage. Higher scores are clinically better.

[4] = Placebo vs High dose, acute visit, FMRP undetectable subjects (n = 5)
[5] = Placebo vs High dose, acute visit, male subjects (n = 9)
[6] = Placebo vs High dose, chronic visit, FMRP undetectable subjects (n = 5)
[7] = Placebo vs High dose, chronic visit, all subjects (n = 12)
[8] = Placebo vs High dose, chronic visit, male subjects (n = 9)
[9] = Placebo vs Low dose, acute visit, all subjects (n = 12)
[10] = Placebo vs Low dose, acute visit, male subjects (n = 9)
[11] = Placebo vs Low dose, chronic visit, FMRP undetectable subjects (n = 5)
[12] = Placebo vs Low dose, chronic visit, all subjects (n = 12)
[13] = Placebo vs Low dose, chronic visit, male subjects (n = 9)
[14] = high dose relative to low dose, acute, male patients
[15] = high dose relative to low dose, acute, peripheral FMRP nondetectable patients
[16] = high dose relative to low dose, chronic, all patients
[17] = high dose relative to low dose, chronic, male patients
[18] = high dose relative to low dose, chronic, peripheral FMRP nondetectable patients
[19] = low dose vs placebo, chronic, male detectable FMRP group

## CCCNC(=O)c1nnc2c(-c3c(F)cccc3OC)cccc2c1N [AZD7325, 4-amino-8-(2-fluoro-6-methoxyphenyl)-N-propylcinnoline-3-carboxamide]
[1]
  WJ auditory attention: trending increase
[2]; [4]
  EEG relative band power: alpha2: local distant small clusters
  EEG relative band power: beta: elevated broadly in the central and parietal regions
  EEG relative band power: delta: local distant small clusters
[2]; [5]
  EEG relative band power: alpha2: central frontal power decrease
  EEG relative band power: beta: elevates a broad region in the central and parietal regions
  EEG relative band power: gamma1: elevated electrodes in the right frontal region
[2]; [6]
  EEG relative band power: beta: isolated electrodes in the parietal and occipital areas elevated
  EEG relative band power: gamma: isolated electrodes in the parietal and occipital areas elevated
  EEG relative band power: theta: decreased in the posterior area
[2]; [7]
  EEG relative band power: beta: electrodes in the parietal and occipital areas elevated
  EEG relative band power: gamma: electrodes in the parietal and occipital areas elevated
  EEG relative band power: theta: decrease in the central area
[2]; [8]
  EEG relative band power: beta: electrodes in the parietal and occipital areas elevated
  EEG relative band power: gamma: electrodes in the parietal and occipital areas elevated
  EEG relative band power: theta: decrease in the central area
[2]; Placebo vs Low dose, acute visit, FMRP undetectable subjects (n = 5)
  EEG relative band power: beta: limited numbers of significantly effected electrodes
[2]; [9]
  EEG relative band power: beta: limited numbers of significantly effected electrodes
  EEG relative band power: theta: limited numbers of significantly effected electrodes
[2]; [10]
  EEG relative band power: alpha: limited numbers of significantly effected electrodes
  EEG relative band power: beta: limited numbers of significantly effected electrodes
[2]; [11]
  EEG relative band power: beta: elevates beta power
  EEG relative band power: theta: reduces theta band power
[2]; [12]
  EEG relative band power: beta: increases beta and gamma band in the parietal region
  EEG relative band power: gamma: increases beta and gamma band in the parietal region
  EEG relative band power: theta: reduces theta band
[2]; [13]
  EEG relative band power: alpha: retain consistent
  EEG relative band power: beta: increases beta and gamma bands in the parietal
  EEG relative band power: theta: reduces theta band
[2]; high dose relative to low dose, acute, all patients
  EEG relative band power: beta: elevate in multiple clusters
[2]; [14]
  EEG relative band power: alpha2: decreased power cluster in the right central region
  EEG relative band power: beta: elevate in multiple clusters
[2]; [15]
  EEG relative band power: beta: elevate in multiple clusters
  EEG relative band power: delta (left frontal cluster): reduced delta band power
[2]; [16]
  EEG relative band power: alpha2 (frontal): decrease
  EEG relative band power: beta: scattered elevated spots
  EEG relative band power: delta: scattered elevated spots
  EEG relative band power: gamma: scattered elevated spots
[2]; [17]
  EEG relative band power: alpha2 (frontal area): decrease in relative power
  EEG relative band power: delta: electrode in left central area elevated
  EEG relative band power: gamma sub-bands: No significant change
[2]; [18]
  EEG relative band power: alpha2 (temporal side): decrease in relative power
  EEG relative band power: beta (temporal side): decrease in relative power
  EEG relative band power: gamma bands: same occipital electrode elevated
[2]; low dose vs placebo, chronic, female (detectable FMRP)
  EEG power (beta band): does not effect
[2]; [19]
  EEG beta power: elevates beta power
  EEG gamma 1 power (E31): elevates gamma 1 power
  EEG theta band power: reduces theta band power
[2]; low dose vs placebo, chronic, male subjects, parietal
  EEG band power: gamma bands: increases beta and gamma bands in the parietal
[2]; low dose vs placebo, chronic, nondetectable FMRP group
  EEG gamma 1 power (E31): elevates gamma 1 power
[2]; low dose, chronic, female subjects
  EEG gamma 1 power: does not grow gamma 1 power
[2]; low dose, male patients having undetectable peripheral FMRP
  gamma waves (EEG): decreased gamma waves
[3]; all eligible subjects, low dose
  RBANS list learning scores, trend: might improve
[3]; high dose
  performance on RBANS: dose limiting effect
[3]; low dose, chronic, nondetectable FMRP subjects
  RBANS_LL change: all positive trended
[3]; low dose, males
  memory as measured by the RBANS assay: improved memory
[3]; subgroup
  RBANS LL score increase, low dose compared to high dose: e Low dose had greater score increase (benefit) than high dose, separating groups.
[3]; subgroup of males (outlier removed), low dose 5 mg twice per day oral
  RBANS list learning, difference of least squares means, Estimate: Baseline - Low: −2.75
[3]; subgroup, high dose
  change of RBANS LL from baseline: c No change from baseline with high dose (direction is toward worsening, −2)
[3]; subgroup, low dose
  increase (benefit) of RBANS LL compared to placebo: d Low dose demonstrated increase of nearly 4 (benefit) compared to placebo
  increase (benefit) of RBANS LL from baseline: b Low dose in this subgroup demonstrated an increase (benefit) of +2.75 of RBANS LL from baseline
[3]; high dose, acute (after the first dosage)
  RBANS-LL score: 10.4 ± 7.40
[3]; high dose, baseline (before intake)
  RBANS-LL score: 14.8 ± 8.32
[3]; high dose, chronic (post 2-week daily dosage)
  RBANS-LL score: 12.2 ± 6.83
[3]; low dose, acute (after the first dosage)
  RBANS-LL score: 13.2 ± 3.11
[3]; low dose, baseline (before intake)
  RBANS-LL score: 10.6 ± 5.22
[3]; low dose, chronic (post 2-week daily dosage)
  RBANS-LL score: 14.6 ± 6.80

Reference: patent US20230414611A1, “REFINED USES OF GABA A RECEPTOR MODULATORS IN TREATMENT OF FRAGILE X SYNDROME” (CHILDREN'S HOSPITAL MEDICAL CENTER, priority 2020, published 2023)
